# Assay results reported in PubChem BioAssay AID1845216 (Molecular Pharmacology Branch, DTP, NCI, 2023).
# Test system: SW 982 tumor spheroid viability
# Experiment: Anticancer human tumor SW 982 cell line growth inhibition;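 also: spheroids exposed to compound for 7 days before readout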
# Conditions: spheroids with HUVEC and MSC; for IC50: curve of first compound; for viability, T/C: stronger effect = lower value
# How it was run: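 Complex tumor spheroids combined malignant cells with endothelial cells and mesenchymal stem cells. DNA-damaging drugs and DNA repair inhibitors were tested alone and in combination, at half-log dilutions down from clinical Cmax (top 10 microM if Cmax unknown), 0.25% DMSO final.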
smiles,measurement,setting,value
[2H]c1nc(C)nc([2H])c1-c1cc(NC[C@@H](C)c2cccc3c(C(=O)NC)ccnc23)ncn1 + COc1cc2c(cc1O)CCNC21CSC2c3c(OC(C)=O)c(C)c4c(c3C(COC1=O)N1C(O)C3Cc5cc(C)c(OC)c(O)c5C(C21)N3C)OCO4,IC50,second compound 30 pM,> 10 µM
same,IC50,second compound 94.9 pM,> 10 µM
same,IC50,second compound 0.0003 µM,> 10 µM
same,IC50,second compound 0.000949 µM,< 0.0316 µM
same,IC50,second compound 0.003 µM,< 0.0316 µM
same,"viability, T/C","second compound 30 pM, first compound 0.0316 µM",91.1%
same,"viability, T/C","second compound 30 pM, first compound 0.1 µM",100%
same,"viability, T/C","second compound 30 pM, first compound 0.316 µM",98%
same,"viability, T/C","second compound 30 pM, first compound 1 µM",93.3%
same,"viability, T/C","second compound 30 pM, first compound 3.16 µM",90.3%
same,"viability, T/C","second compound 30 pM, first compound 10 µM",101%
same,"viability, T/C","second compound 94.9 pM, first compound 0.0316 µM",95.7%
same,"viability, T/C","second compound 94.9 pM, first compound 0.1 µM",90.7%
same,"viability, T/C","second compound 94.9 pM, first compound 0.316 µM",98.1%
same,"viability, T/C","second compound 94.9 pM, first compound 1 µM",93.8%
same,"viability, T/C","second compound 94.9 pM, first compound 3.16 µM",89.4%
same,"viability, T/C","second compound 94.9 pM, first compound 10 µM",91.2%
same,"viability, T/C","second compound 0.0003 µM, first compound 0.0316 µM",87.2%
same,"viability, T/C","second compound 0.0003 µM, first compound 0.1 µM",83.2%
same,"viability, T/C","second compound 0.0003 µM, first compound 0.316 µM",79.4%
same,"viability, T/C","second compound 0.0003 µM, first compound 1 µM",70.3%
same,"viability, T/C","second compound 0.0003 µM, first compound 3.16 µM",74.9%
same,"viability, T/C","second compound 0.0003 µM, first compound 10 µM",75.4%
same,"viability, T/C","second compound 0.000949 µM, first compound 0.0316 µM",37.3%
same,"viability, T/C","second compound 0.000949 µM, first compound 0.1 µM",26.5%
same,"viability, T/C","second compound 0.000949 µM, first compound 0.316 µM",44.4%
same,"viability, T/C","second compound 0.000949 µM, first compound 1 µM",44.1%
same,"viability, T/C","second compound 0.000949 µM, first compound 3.16 µM",42.6%
same,"viability, T/C","second compound 0.000949 µM, first compound 10 µM",21.9%
same,"viability, T/C","second compound 0.003 µM, first compound 0.0316 µM",0.62%
same,"viability, T/C","second compound 0.003 µM, first compound 0.1 µM",1.1%
same,"viability, T/C","second compound 0.003 µM, first compound 0.316 µM",1.05%
same,"viability, T/C","second compound 0.003 µM, first compound 1 µM",0.69%
same,"viability, T/C","second compound 0.003 µM, first compound 3.16 µM",0.48%
same,"viability, T/C","second compound 0.003 µM, first compound 10 µM",0.77%
O=C(c1cc(Cc2n[nH]c(=O)c3ccccc23)ccc1F)N1CCN(C(=O)C2CC2)CC1 + Cn1nnc2c(C(N)=O)ncn2c1=O,IC50,second compound 1 µM,21.4 µM
same,IC50,second compound 3.16 µM,21.8 µM
same,IC50,second compound 10 µM,16.3 µM
same,IC50,second compound 31.6 µM,4.55 µM
same,IC50,second compound 100 µM,0.863 µM
same,"viability, T/C","second compound 1 µM, first compound 0.0949 µM",93.2%
same,"viability, T/C","second compound 1 µM, first compound 0.3 µM",95%
same,"viability, T/C","second compound 1 µM, first compound 0.949 µM",96.9%
same,"viability, T/C","second compound 1 µM, first compound 3 µM",78.3%
same,"viability, T/C","second compound 1 µM, first compound 9.49 µM",66.5%
same,"viability, T/C","second compound 1 µM, first compound 30 µM",43.5%
same,"viability, T/C","second compound 3.16 µM, first compound 0.0949 µM",93.7%
same,"viability, T/C","second compound 3.16 µM, first compound 0.3 µM",93.8%
same,"viability, T/C","second compound 3.16 µM, first compound 0.949 µM",81.3%
same,"viability, T/C","second compound 3.16 µM, first compound 3 µM",73.6%
same,"viability, T/C","second compound 3.16 µM, first compound 9.49 µM",59.7%
same,"viability, T/C","second compound 3.16 µM, first compound 30 µM",46.4%
same,"viability, T/C","second compound 10 µM, first compound 0.0949 µM",75.7%
same,"viability, T/C","second compound 10 µM, first compound 0.3 µM",70.7%
same,"viability, T/C","second compound 10 µM, first compound 0.949 µM",68%
same,"viability, T/C","second compound 10 µM, first compound 3 µM",67.6%
same,"viability, T/C","second compound 10 µM, first compound 9.49 µM",57.3%
same,"viability, T/C","second compound 10 µM, first compound 30 µM",41.7%
same,"viability, T/C","second compound 31.6 µM, first compound 0.0949 µM",66.6%
same,"viability, T/C","second compound 31.6 µM, first compound 0.3 µM",64.5%
same,"viability, T/C","second compound 31.6 µM, first compound 0.949 µM",54.3%
same,"viability, T/C","second compound 31.6 µM, first compound 3 µM",55.7%
same,"viability, T/C","second compound 31.6 µM, first compound 9.49 µM",45.2%
same,"viability, T/C","second compound 31.6 µM, first compound 30 µM",36%
same,"viability, T/C","second compound 100 µM, first compound 0.0949 µM",49.6%
same,"viability, T/C","second compound 100 µM, first compound 0.3 µM",54%
same,"viability, T/C","second compound 100 µM, first compound 0.949 µM",50.7%
same,"viability, T/C","second compound 100 µM, first compound 3 µM",41.6%
same,"viability, T/C","second compound 100 µM, first compound 9.49 µM",38.3%
same,"viability, T/C","second compound 100 µM, first compound 30 µM",33.2%
